Measured values from US5368712A, “Biologically mimetic synthetic ion channel transducers” (Synporin Technologies, Inc., priority 1990, dated 1994).
Several values for one entry are separate records, joined by “and”; a condition that tells them apart may be missing. Identical values can stand only once. Entries after “also recorded” stand apart in the source; their conditions may differ.

Tests used:
[1] = Single channel recordings of synthetic channel proteins in lipid bilayers; conditions: for formation of ionic channels in lipid bilayers: single channel recordings in lipid bilayers
Experimental: Using established recording, filtering, digitizing and data processing techniques, single channel recording were made of single channel recordings for tethered tetrameric M2δ proteins and free M2δ proteins (FIGS. 7 and 8 respectively). Conductance (V) and lifetime (T) values were determined from a multiplicity of events, and single channel open and closed lifetimes were discriminated using a published pattern recognition algorithm.
These recordings were made in symmetric 0.5M KCl (pH 7.4) and recorded at 100 mV. […] These were recorded at 0.5M NaCl (pH 7.2) and 100 mV.
Planar lipid bilayers into which the synthetic ion protein channels can be incorporated are prepared using commonly available and well understood lipids and bilayer formation techniques. For example, planar bilayers can be formed by hydrophobic apposition of two lipid monolayers initially formed at an air-water interface. The electrical properties of such protein-free bilayers can be examined using known techniques. Peptides can be incorporated into the bilayers from mixed lipid-peptide monolayers.

[2] = target: T1, tetrameric M2δ synthetic porin (Tetronarce californica, UniProt P02718); test: Block of tetrameric M2δ synthetic porin by a local anaesthetic derivative, single channel recordings; assay type: biochemical, Torpedo californica; conditions: 25 μM QX-222
T1 construct: multi-functional carrier template (peptide backbone of at least seven amino acids with four basic attachment residues); made in house; host or cells: chemical peptide synthesis (no expression host)
Experimental: Furthermore, the pharmacological specificity of the pure structure generated by the tetrameric M2δ synthetic porin was examined by using a quaternary derivative (QX-222) of the local anaesthetic lidocaine. QX-222 is known to transiently block the flow of current through the AChR channel, thereby reducing the channel open lifetime. FIGS. 9A and […] show comparative single channel recordings of this synthetic porin before (FIG. 9A) and after (FIG. 9B) addition of 25 μM QX-222. The result is that the characteristic brief and long open lifetimes exist prior to application of the anaesthetic, as previously shown in FIG. 7.

9 amino acid backbone used as template: nine-residue carrier template K K K P G K E K G without attached oligopeptides (KKKPGKEKG)
formation of ionic channels in lipid bilayers [1]: showed similar activity

Cc1cccc(C)c1NC(=O)C[N+](C)(C)C [QX-222]
effect on channel open time [2]: drastically shortened | effect on single channel conductance V [2]: virutally unaffected

EKMSTAISVLLAQAVFLLLTSQR [free (monomeric) M2δ, untethered 23-mer synthetic peptide mimicking the acetylcholine receptor M2δ subunit]
single channel conductance V of distinct events ([1]; 0.5M NaCl (pH 7.2), 100 mV): 20 pS and 40 pS | formation of ionic channels in lipid bilayers [1]: form discrete ion channels in lipid bilayers; also recorded: forms channels of heterogeneous amplitudes and open lifetimes

XPDWNWLDFTVITFAYVTEFVDL [22-residue synthetic peptide that mimics the electrical properties of a voltage dependent sodium channel]
selectivity cations versus anions [1]: discriminates cations over anions | selectivity sodium ion versus potassium ion [1]: nonselective between sodium ion and potassium ion | single channel open and close lifetimes [1]: in the millisecond time range | voltage dependence [1]: no specific voltage dependence | single channel conductance of the most frequent event ([1]; 0.5M sodium chloride): 20 pS
